# From patent publication US12522602B2, “Derivatives having 2,3-dihydro-1H-indene or 2,3-dihydrobenzofuran moiety or pharmaceutically acceptable salt thereof and pharmaceutical compositions comprising the same” (YUHAN CORPORATION, priority 2019, dated 2026)
# Where two headings read alike, the source gives them in different places.
# Tested on: GM1 production in Jurkat cells
# Experiment: cells
# Type: cell-based
smiles,measurement,setting,value
"O=C(NC1CCc2cc(-c3cccc(F)c3F)ccc21)O[C@@H]1CN2CCC1CC2 (stereo partly drawn) [Example 17, (S)-quinuclidin-3-yl (5-(2,3-difluorophenyl)-2,3-dihydro-1H-inden-1-yl)carbamate]",IC50,"Homo sapiens, Jurkat, 72 h",0.0276 µM
"O=C(NC1CCc2cc(-c3cc(F)ccc3F)ccc21)O[C@@H]1CN2CCC1CC2 (stereo partly drawn) [Example 18, (S)-quinuclidin-3-yl (5-(2,5-difluorophenyl)-2,3-dihydro-1H-inden-1-yl)carbamate]",IC50,"Homo sapiens, Jurkat, 72 h",0.0316 µM
"O=C(NC1CCc2cc(-c3cc(F)cc(F)c3)ccc21)O[C@@H]1CN2CCC1CC2 (stereo partly drawn) [Example 19, (S)-quinuclidin-3-yl (5-(3,5-difluorophenyl)-2,3-dihydro-1H-inden-1-yl)carbamate]",IC50,"Homo sapiens, Jurkat, 72 h",0.0203 µM
"O=C(NC1CCc2cc(-c3ccc(F)c(F)c3F)ccc21)O[C@@H]1CN2CCC1CC2 (stereo partly drawn) [Example 20, (S)-quinuclidin-3-yl (5-(2,3,4-trifluorophenyl)-2,3-dihydro-1H-inden-1-yl)carbamate]",IC50,"Homo sapiens, Jurkat, 72 h",0.126 µM
"O=C(NC1CCc2cc(-c3cc(F)c(F)cc3F)ccc21)O[C@@H]1CN2CCC1CC2 (stereo partly drawn) [Example 21, (S)-quinuclidin-3-yl (5-(2,4,5-trifluorophenyl)-2,3-dihydro-1H-inden-1-yl)carbamate]",IC50,"Homo sapiens, Jurkat, 72 h",0.127 µM
"O=C(NC1CCc2cc(-c3cc(Cl)cc(Cl)c3)ccc21)O[C@@H]1CN2CCC1CC2 (stereo partly drawn) [Example 22, (S)-quinuclidin-3-yl (5-(3,5-dichlorophenyl)-2,3-dihydro-1H-inden-1-yl)carbamate]",IC50,"Homo sapiens, Jurkat, 72 h",0.0896 µM
"O=C(NC1CCc2cc(-c3ccc(Cl)c(Cl)c3)ccc21)O[C@@H]1CN2CCC1CC2 (stereo partly drawn) [Example 23, (S)-quinuclidin-3-yl (5-(3,4-dichlorophenyl)-2,3-dihydro-1H-inden-1-yl)carbamate]",IC50,"Homo sapiens, Jurkat, 72 h",0.0637 µM
"O=C(NC1CCc2cc(-c3cc(Cl)ccc3Cl)ccc21)O[C@@H]1CN2CCC1CC2 (stereo partly drawn) [Example 24, (S)-quinuclidin-3-yl (5-(2,5-dichlorophenyl)-2,3-dihydro-1H-inden-1-yl)carbamate]",IC50,"Homo sapiens, Jurkat, 72 h",0.0174 µM
"O=C(NC1CCc2ccc(-c3ccc(F)cc3)cc21)O[C@@H]1CN2CCC1CC2 (stereo partly drawn) [Example 25, (S)-quinuclidin-3-yl (6-(4-fluorophenyl)-2,3-dihydro-1H-inden-1-yl)carbamate]",IC50,"Homo sapiens, Jurkat, 72 h",0.106 µM
"O=C(NC1CCc2ccc(-c3ccc(Cl)cc3)cc21)O[C@@H]1CN2CCC1CC2 (stereo partly drawn) [Example 26, (S)-quinuclidin-3-yl (6-(4-chlorophenyl)-2,3-dihydro-1H-inden-1-yl)carbamate]",IC50,"Homo sapiens, Jurkat, 72 h",0.0672 µM
"O=C(NC1CCc2ccc(-c3ccc(C(F)(F)F)cc3)cc21)O[C@@H]1CN2CCC1CC2 (stereo partly drawn) [Example 27, (S)-quinuclidin-3-yl (6-(4-(trifluoromethyl)phenyl)-2,3-dihydro-1H-inden-1-yl)carbamate]",IC50,"Homo sapiens, Jurkat, 72 h",0.0357 µM
"O=C(NC1CCc2ccc(-c3ccc(OC(F)(F)F)cc3)cc21)O[C@@H]1CN2CCC1CC2 (stereo partly drawn) [Example 28, (S)-quinuclidin-3-yl (6-(4-(trifluoromethoxy)phenyl)-2,3-dihydro-1H-inden-1-yl)carbamate]",IC50,"Homo sapiens, Jurkat, 72 h",0.052 µM
"O=C(NC1CCc2ccc(-c3cccc(F)c3)cc21)O[C@@H]1CN2CCC1CC2 (stereo partly drawn) [Example 29, (S)-quinuclidin-3-yl (6-(3-fluorophenyl)-2,3-dihydro-1H-inden-1-yl)carbamate]",IC50,"Homo sapiens, Jurkat, 72 h",0.063 µM
"O=C(NC1CCc2ccc(-c3cccc(Cl)c3)cc21)O[C@@H]1CN2CCC1CC2 (stereo partly drawn) [Example 30, (S)-quinuclidin-3-yl (6-(3-chlorophenyl)-2,3-dihydro-1H-inden-1-yl)carbamate]",IC50,"Homo sapiens, Jurkat, 72 h",0.107 µM
"O=C(NC1CCc2ccc(-c3cccc(C(F)(F)F)c3)cc21)O[C@@H]1CN2CCC1CC2 (stereo partly drawn) [Example 31, (S)-quinuclidin-3-yl (6-(3-(trifluoromethyl)phenyl)-2,3-dihydro-1H-inden-1-yl)carbamate]",IC50,"Homo sapiens, Jurkat, 72 h",0.0655 µM
"O=C(NC1CCc2ccc(-c3cccc(OC(F)(F)F)c3)cc21)O[C@@H]1CN2CCC1CC2 (stereo partly drawn) [Example 32, (S)-quinuclidin-3-yl (6-(3-(trifluoromethoxy)phenyl)-2,3-dihydro-1H-inden-1-yl)carbamate]",IC50,"Homo sapiens, Jurkat, 72 h",0.12 µM
"O=C(NC1CCc2ccc(-c3ccc(OC(F)F)cc3)cc21)O[C@@H]1CN2CCC1CC2 (stereo partly drawn) [Example 37, (S)-quinuclidin-3-yl (6-(4-(difluoromethoxy)phenyl)-2,3-dihydro-1H-inden-1-yl)carbamate]",IC50,"Homo sapiens, Jurkat, 72 h",0.0552 µM
"Cc1ccc(-c2ccc3c(c2)C(NC(=O)O[C@@H]2CN4CCC2CC4)CC3)cc1 (stereo partly drawn) [Example 38, (S)-quinuclidin-3-yl (6-(p-tolyl)-2,3-dihydro-1H-inden-1-yl)carbamate]",IC50,"Homo sapiens, Jurkat, 72 h",0.062 µM
"O=C(NC1CCc2ccc(-c3ccc(F)c(F)c3)cc21)O[C@@H]1CN2CCC1CC2 (stereo partly drawn) [Example 39, (S)-quinuclidin-3-yl (6-(3,4-difluorophenyl)-2,3-dihydro-1H-inden-1-yl)carbamate]",IC50,"Homo sapiens, Jurkat, 72 h",0.0519 µM
"O=C(NC1CCc2ccc(-c3ccc(F)cc3F)cc21)O[C@@H]1CN2CCC1CC2 (stereo partly drawn) [Example 43, (S)-quinuclidin-3-yl (6-(2,4-difluorophenyl)-2,3-dihydro-1H-inden-1-yl)carbamate]",IC50,"Homo sapiens, Jurkat, 72 h",0.183 µM
"O=C(NC1CCc2ccc(-c3cc(F)c(F)cc3F)cc21)O[C@@H]1CN2CCC1CC2 (stereo partly drawn) [Example 44, (S)-quinuclidin-3-yl (6-(2,4,5-trifluorophenyl)-2,3-dihydro-1H-inden-1-yl)carbamate]",IC50,"Homo sapiens, Jurkat, 72 h",0.0352 µM
"O=C(NC1CCc2ccc(-c3ccc(F)c(F)c3F)cc21)O[C@@H]1CN2CCC1CC2 (stereo partly drawn) [Example 45, (S)-quinuclidin-3-yl (6-(2,3,4-trifluorophenyl)-2,3-dihydro-1H-inden-1-yl)carbamate]",IC50,"Homo sapiens, Jurkat, 72 h",0.0573 µM
"O=C(NC1CCc2ccc(-c3cc(Cl)ccc3Cl)cc21)O[C@@H]1CN2CCC1CC2 (stereo partly drawn) [Example 46, (S)-quinuclidin-3-yl (6-(2,5-dichlorophenyl)-2,3-dihydro-1H-inden-1-yl)carbamate]",IC50,"Homo sapiens, Jurkat, 72 h",0.0192 µM
"O=C(NC1CCc2ccc(-c3ccc(Cl)c(Cl)c3)cc21)O[C@@H]1CN2CCC1CC2 (stereo partly drawn) [Example 47, (S)-quinuclidin-3-yl (6-(3,4-dichlorophenyl)-2,3-dihydro-1H-inden-1-yl)carbamate]",IC50,"Homo sapiens, Jurkat, 72 h",0.0266 µM
"O=C(NC1CCc2ccc(-c3cc(Cl)cc(Cl)c3)cc21)O[C@@H]1CN2CCC1CC2 (stereo partly drawn) [Example 48, (S)-quinuclidin-3-yl (6-(3,5-dichlorophenyl)-2,3-dihydro-1H-inden-1-yl)carbamate]",IC50,"Homo sapiens, Jurkat, 72 h",0.0657 µM
"CC1(C)Cc2ccc(-c3ccc(F)cc3)cc2C1NC(=O)O[C@@H]1CN2CCC1CC2 (stereo partly drawn) [Example 49, (S)-quinuclidin-3-yl (6-(4-fluorophenyl)-2,2-dimethyl-2,3-dihydro-1H-inden-1-yl)carbamate]",IC50,"Homo sapiens, Jurkat, 72 h",0.0614 µM
"CC1(C)Cc2ccc(-c3ccc(Cl)cc3)cc2C1NC(=O)O[C@@H]1CN2CCC1CC2 (stereo partly drawn) [Example 50, (S)-quinuclidin-3-yl (6-(4-chlorophenyl)-2,2-dimethyl-2,3-dihydro-1H-inden-1-yl)carbamate]",IC50,"Homo sapiens, Jurkat, 72 h",0.0523 µM
"CC1(C)Cc2ccc(-c3ccc(C(F)(F)F)cc3)cc2C1NC(=O)O[C@@H]1CN2CCC1CC2 (stereo partly drawn) [Example 51, (S)-quinuclidin-3-yl (2,2-dimethyl-6-(4-(trifluoromethyl)phenyl)-2,3-dihydro-1H-inden-1-yl)carbamate]",IC50,"Homo sapiens, Jurkat, 72 h",0.0302 µM
"CC1(C)Cc2ccc(-c3ccc(OC(F)(F)F)cc3)cc2C1NC(=O)O[C@@H]1CN2CCC1CC2 (stereo partly drawn) [Example 52, (S)-quinuclidin-3-yl (2,2-dimethyl-6-(4-(trifluoromethoxy)phenyl)-2,3-dihydro-1H-inden-1-yl)carbamate]",IC50,"Homo sapiens, Jurkat, 72 h",0.0823 µM
"CC1(C)Cc2ccc(-c3cccc(F)c3)cc2C1NC(=O)O[C@@H]1CN2CCC1CC2 (stereo partly drawn) [Example 53, (S)-quinuclidin-3-yl (6-(3-fluorophenyl)-2,2-dimethyl-2,3-dihydro-1H-inden-1-yl)carbamate]",IC50,"Homo sapiens, Jurkat, 72 h",0.08 µM
"CC1(C)Cc2ccc(-c3cccc(Cl)c3)cc2C1NC(=O)O[C@@H]1CN2CCC1CC2 (stereo partly drawn) [Example 54, (S)-quinuclidin-3-yl (6-(3-chlorophenyl)-2,2-dimethyl-2,3-dihydro-1H-inden-1-yl)carbamate]",IC50,"Homo sapiens, Jurkat, 72 h",0.161 µM
"CC1(C)Cc2ccc(-c3cccc(C(F)(F)F)c3)cc2C1NC(=O)O[C@@H]1CN2CCC1CC2 (stereo partly drawn) [Example 55, (S)-quinuclidin-3-yl (2,2-dimethyl-6-(3-(trifluoromethyl)phenyl)-2,3-dihydro-1H-inden-1-yl)carbamate]",IC50,"Homo sapiens, Jurkat, 72 h",0.173 µM
"CC1(C)Cc2ccc(-c3cccc(OC(F)(F)F)c3)cc2C1NC(=O)O[C@@H]1CN2CCC1CC2 (stereo partly drawn) [Example 56, (S)-quinuclidin-3-yl (2,2-dimethyl-6-(3-(trifluoromethoxy)phenyl)-2,3-dihydro-1H-inden-1-yl)carbamate]",IC50,,0.21 µM
"CC1(C)Cc2ccc(-c3ccccc3F)cc2C1NC(=O)O[C@@H]1CN2CCC1CC2 (stereo partly drawn) [Example 57, (S)-quinuclidin-3-yl (6-(2-fluorophenyl)-2,2-dimethyl-2,3-dihydro-1H-inden-1-yl)carbamate]",IC50,"Homo sapiens, Jurkat, 72 h",0.0499 µM
"CC1(C)Cc2ccc(-c3ccccc3Cl)cc2C1NC(=O)O[C@@H]1CN2CCC1CC2 (stereo partly drawn) [Example 58, (S)-quinuclidin-3-yl (6-(2-chlorophenyl)-2,2-dimethyl-2,3-dihydro-1H-inden-1-yl)carbamate]",IC50,"Homo sapiens, Jurkat, 72 h",0.0878 µM
"CC1(C)Cc2ccc(-c3ccccc3C(F)(F)F)cc2C1NC(=O)O[C@@H]1CN2CCC1CC2 (stereo partly drawn) [Example 59, (S)-quinuclidin-3-yl (2,2-dimethyl-6-(2-(trifluoromethyl)phenyl)-2,3-dihydro-1H-inden-1-yl)carbamate]",IC50,"Homo sapiens, Jurkat, 72 h",0.165 µM
"Cc1ccc(-c2ccc3c(c2)C(NC(=O)O[C@@H]2CN4CCC2CC4)C(C)(C)C3)cc1 (stereo partly drawn) [Example 60, (S)-quinuclidin-3-yl (2,2-dimethyl-6-(p-tolyl)-2,3-dihydro-1H-inden-1-yl)carbamate]",IC50,"Homo sapiens, Jurkat, 72 h",0.112 µM
"CC1(C)Cc2ccc(-c3ccc(OC(F)F)cc3)cc2C1NC(=O)O[C@@H]1CN2CCC1CC2 (stereo partly drawn) [Example 61, (S)-quinuclidin-3-yl (6-(4-(difluoromethoxy)phenyl)-2,2-dimethyl-2,3-dihydro-1H-inden-1-yl)carbamate]",IC50,"Homo sapiens, Jurkat, 72 h",0.0396 µM
"CC1(C)Cc2ccc(-c3ccc(F)c(F)c3)cc2C1NC(=O)O[C@@H]1CN2CCC1CC2 (stereo partly drawn) [Example 62, (S)-quinuclidin-3-yl (6-(3,4-difluorophenyl)-2,2-dimethyl-2,3-dihydro-1H-inden-1-yl)carbamate]",IC50,"Homo sapiens, Jurkat, 72 h",0.103 µM
